In article PMC7600351 (Pharmaceutics, 2020):
Read-outs that look alike come from different tables or passages of the source.

Assays:
[1] = system: all cell lines used; assay: Cytotoxicity Detection Kit (LDH release); format: cell-based; conditions: up to 100 µM
Source text: The toxic effects of tested compounds can negatively influence transporter inhibition assays.

[2] = target: T1, human P-gp (Homo sapiens, UniProt P08183); assay: P-gp inhibition, calcein-AM uptake assay in L-MDR1 vs LLC-PK1 cells; format: cell-based; conditions: L-MDR1 cells and parental LLC-PK1; 0.01–100 µM; 0.5 µM calcein-AM
T1 construct: expressed in transfected cells; host or cells: L-MDR1 (derived from porcine LLC-PK1)
Experimental: (§1) P-gp inhibition was tested with a calcein assay as published previously using two different cell systems: the L-MDR1 cell line that over-expresses human P-gp and the corresponding parental cell line LLC-PK1 [19] and the P-gp over-expressing murine monocytic cell line P388/dx and its parental counterpart cell line P388 as a control. LLC-PK1 and L-MDR1 cells were cultured under standard cell culture conditions with medium M199 supplemented with 10% FCS, 2 mM glutamine, 100 U/mL penicillin, and 100 µg/mL streptomycin sulphate. […] One day before using the cells for the calcein assay, both cell lines were fed with vincristine-free culture medium. […] One day before the inhibition assay, both P388 cell lines were set to the doxorubicin-free culture medium.
(§2) In brief, the assay was performed in 96-well plates with a final calcein-AM concentration of 0.5 µM for the LLC cell system and 1 µM for the P388 cell system. Cells were washed with pre-warmed HBSS supplemented with 10 mM HEPES (HHBSS) and pre-incubated with this buffer for 30 min and subsequently with the test compound for 10 min (LLC cell system) or 15 min (P388 cell system). After pre-incubation, calcein-AM was added and the cells were incubated for 60 min (LLC system) or 30 min (P388 cell system) at 37 °C on a rotary shaker (Noctua, Vienna, Austria). […]

[3] = system: P-gp (P388/dx cells); assay: P-gp inhibition, calcein-AM uptake assay in P388/dx vs P388 cells; format: cell-based, murine; conditions: not in parental P388, 1 µM calcein-AM, IC50 could not be calculated
Experimental: as §1, §2

[4] = target: T2, OATP1B1 (Homo sapiens, UniProt Q9Y6L6); assay: Flow cytometric OATP1B1 inhibition assay (8-FcA uptake, HEK-OATP1B1); format: cell-based
T2 construct: expressed in transfected cells; host or cells: HEK293 (HEK-OATP1B1)
Experimental: (§3) As cell models for human OATP1B1 and OATP1B3, HEK293, a human embryonic kidney cell line, stably transfected with OATP1B1 (HEK-OATP1B1), OATP1B3 (HEK-OATP1B3), or the empty control vector (HEK293-VC G418) were used. Cells were cultured under standard cell culture conditions with DMEM supplemented with 10% FCS, 2 mM glutamine, 100 U/mL penicillin, 100 µg/mL streptomycin sulphate, and 800 µg/mL G418. Inhibition of the OATPs was quantified by flow cytometry assessing the uptake of 8-FcA into HEK293 cells over-expressing the respective transporter after 10 min incubation and normalised to the control cell line as described previously. Intracellular fluorescence was quantified in a MACSQuant 10 Analyzer (Milteny, Bergisch-Gladbach, Germany) with the 488 nm laser for excitation and the 525 nm bandfilter for emission (FITC channel). Excluding debris, living cells were gated in the forward/sideward scatter by using the unstained sample. For each concentration (0.1–100 µM), 30,000 cells were measured and each experiment was performed in triplicate. Rifampicin (20 µM), a well-known inhibitor of OATP1B1 and OATP1B3, was used as a positive control.

[5] = target: T3, OATP1B3 (Homo sapiens, UniProt Q9NPD5); assay: Flow cytometric OATP1B3 inhibition assay (8-FcA uptake, HEK-OATP1B3); format: cell-based
T3 construct: expressed in transfected cells; host or cells: HEK293 (HEK-OATP1B3)
Experimental: as §3

[6] = target: T4, OATP2B1 (Homo sapiens, UniProt O94956); assay: Flow cytometric OATP2B1 inhibition assay (DBF uptake, HEK293 with tetracycline-induced OATP2B1); format: cell-based
T4 construct: expressed in transfected cells; host or cells: HEK293, tetracycline-induced OATP2B1 expression
Experimental: As a cell model for human OATP2B1, HEK293 cells over-expressing OATP2B1 in the presence of tetracycline were used. Cells were cultured under standard cell culture conditions with DMEM/Ham’s F12 medium supplemented with 10% FCS, 4 mM glutamine, 100 U/mL penicillin, and 100 µg/mL streptomycin sulphate. To generate OATP2B1 over-expression, cells were treated 72 h before the assay with 1 µg/mL tetracycline. […] Excluding debris, living cells were gated in the forward/sideward scatter by using the unstained sample. […] Uptake in cells with tetracycline induction was normalised to the uptake in cells without induction. Naringin (1 mM) was used as a positive control.

[7] = system: LLC-PK1 cells; assay: Growth inhibition assay (crystal violet), parental LLC-PK1; format: cell-based; conditions: Sus scrofa
Experimental: (§4) Cell lines with overexpression of an efflux transporter are more resistant to the anti-proliferative effects of a compound if this compound is a substrate of the respective transporter and can be extruded from the cell. […] Reversal of drug resistance was tested by using the P-gp-specific inhibitor LY335979 (zosuquidar) or the BCRP-specific inhibitor FTC. The assay using crystal violet staining was conducted and analysed as described previously. Each experiment was performed at least in quadruplicate with n = 8 wells for each concentration (0.1–500 µM).

[8] = system: L-MDR1 cells (over-expression of human P-gp); assay: Growth inhibition assay (crystal violet), P-gp over-expressing L-MDR1; format: cell-based; conditions: growth inhibition L-MDR1 vs LLC-PK1 with and without LY335979
Experimental: as §4

[9] = system: P-gp (substrate test by growth inhibition); assay: as above; format: cell-based; conditions: pig, L-MDR1 cells (LLC-PK1 over-expressing human P-gp)
Experimental: as §4

[10] = system: MDCKII cells; assay: Growth inhibition assay (crystal violet), parental MDCKII; format: cell-based; conditions: Canis lupus familiaris, MDCK-II
Experimental: as §4

[11] = system: BCRP (substrate test by growth inhibition); assay: Growth inhibition assay (crystal violet), BCRP over-expressing MDCKII-BCRP; format: cell-based; conditions: dog, MDCKII-BCRP cells (MDCKII over-expressing human BCRP)
Experimental: as §4

[12] = system: MDCKII-BCRP cells (over-expressing human BCRP); assay: as above; format: cell-based; conditions: growth inhibition MDCKII-BCRP vs MDCKII with and without FTC
Experimental: as §4

[13] = system: LS180 cells; assay: Growth inhibition in LS180 cells (crystal violet); format: cell-based; conditions: Homo sapiens
Experimental: Proliferation was quantified by crystal violet staining and the assays were conducted as described previously. Each concentration was tested in octuplet and each experiment was performed in quadruplicate.

[14] = system: CYP3A4
Experimental: (§5) For induction experiments, the human colon adenocarcinoma cell line LS180 (available at ATCC, Manassas, VA, USA) was used. This cell line is an established model for investigating gene inductions mediated by PXR or AhR [25, 28]. Cells were cultured under standard cell culture conditions in DMEM supplemented with 10% FCS, 100 U/mL penicillin, 100 µg/mL streptomycin sulphate, 0.1 mM non-essential amino acids, and 2 mM glutamine.
(§6) All media were adjusted to the DMSO content of the solution with the highest DMSO content in the respective experiment (0.1%). The experiment was conducted in quintuplicate. RNA was extracted immediately after harvesting the cells and stored at −80 °C until processing.
(§7) RNA was isolated using the GenElute™ Mammalian Total RNA Miniprep Kit, and cDNA was synthesized with the RevertAid™ H Minus First Strand cDNA Synthesis Kit according to the manufacturer’s instructions. mRNA expression was quantified by real-time RT-PCR with the LightCycler® 480 (Roche Applied Science, Mannheim, Germany) as described previously. […] Data were evaluated via calibrator-normalised relative quantification with efficiency correction using the LightCycler® 480 software version 1.5.1.62 (Roche Applied Science, Mannheim, Germany). Results were expressed as the target/reference ratio divided by the target/reference ratio of the calibrator. […]

[15] = system: ABCB1; assay: Induction assay in LS180 cells, ABCB1 mRNA (real-time RT-PCR); format: cell-based, human; conditions: LS180, 4 days; hydroxychloroquine 1, 2, 10, 20 µM; rifampicin 20 µM
Experimental: as §5, §6, §7

[16] = system: ABCG2; assay: Induction assay in LS180 cells, ABCG2 mRNA (real-time RT-PCR); format: cell-based, human; conditions: LS180, 4 days; hydroxychloroquine 1, 2, 10, 20 µM; rifampicin 20 µM; omeprazole 150 µM
Experimental: as §5, §6
RNA was isolated using the GenElute™ Mammalian Total RNA Miniprep Kit, and cDNA was synthesized with the RevertAid™ H Minus First Strand cDNA Synthesis Kit according to the manufacturer’s instructions. mRNA expression was quantified by real-time RT-PCR with the LightCycler® 480 (Roche Applied Science, Mannheim, Germany) as described previously. […] Data were evaluated via calibrator-normalised relative quantification with efficiency correction using the LightCycler® 480 software version 1.5.1.62 (Roche Applied Science, Mannheim, Germany). Results were expressed as the target/reference ratio divided by the target/reference ratio of the calibrator. The results are therefore corrected for sample inhomogeneities and variance caused by detection. All samples were amplified in duplicate and the mean of the technical duplicate was used for further calculation.

[17] = system: CYP1A1; assay: Induction assay in LS180 cells, CYP1A1 mRNA (real-time RT-PCR); format: cell-based, human; conditions: LS180, 4 days; hydroxychloroquine 1, 2, 10, 20 µM; omeprazole 150 µM
Experimental: as §5, §6, §7

[18] = system: CYP1A2; assay: Induction assay in LS180 cells, CYP1A2 mRNA (real-time RT-PCR); conditions: LS180, 4 days; hydroxychloroquine 1, 2, 10, 20 µM; omeprazole 150 µM
Experimental: as §5, §6, §7

[19] = cited from earlier work
[20] = system: OATP1B3; conditions: at 10 µM; cited from earlier work
[21] = system: OATP2B1; conditions: at 10 µM; cited from earlier work
[22] = system: organic anion transporters (OATs); conditions: cited from earlier work
[23] = system: organic cation transporters (OCTs); conditions: cited from earlier work
[24] = system: organic cation/carnitine transporters (OCTNs); conditions: cited from earlier work
[25] = system: OATP1A2; conditions: uptake of all-trans-retinol in vitro; cited from earlier work
[26] = system: P-gp; design: method as in PMID 7113754; conditions: two case reports; cited from earlier work
[27] = 0.1–100 µM, 8-FcA uptake, 10 min

T4 sequence (O94956 whole entry): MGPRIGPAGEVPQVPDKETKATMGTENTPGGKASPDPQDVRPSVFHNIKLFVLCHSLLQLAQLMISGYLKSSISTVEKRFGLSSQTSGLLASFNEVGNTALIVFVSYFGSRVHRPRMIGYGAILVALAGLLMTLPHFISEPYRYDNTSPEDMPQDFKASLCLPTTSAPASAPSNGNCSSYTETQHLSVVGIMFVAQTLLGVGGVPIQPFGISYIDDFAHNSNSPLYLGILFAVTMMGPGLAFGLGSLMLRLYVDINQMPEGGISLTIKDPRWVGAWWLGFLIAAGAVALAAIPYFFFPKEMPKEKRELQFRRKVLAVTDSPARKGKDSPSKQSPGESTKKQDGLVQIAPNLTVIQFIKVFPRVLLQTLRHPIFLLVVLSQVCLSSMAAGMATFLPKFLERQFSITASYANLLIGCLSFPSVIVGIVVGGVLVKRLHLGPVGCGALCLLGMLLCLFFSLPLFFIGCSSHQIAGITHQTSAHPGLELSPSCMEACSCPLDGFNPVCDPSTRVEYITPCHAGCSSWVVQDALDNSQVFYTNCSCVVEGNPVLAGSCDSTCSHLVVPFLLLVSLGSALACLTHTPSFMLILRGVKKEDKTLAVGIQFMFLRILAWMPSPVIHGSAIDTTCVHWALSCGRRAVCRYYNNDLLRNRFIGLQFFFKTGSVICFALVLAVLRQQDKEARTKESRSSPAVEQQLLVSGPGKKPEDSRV
T3 sequence (Q9NPD5 whole entry): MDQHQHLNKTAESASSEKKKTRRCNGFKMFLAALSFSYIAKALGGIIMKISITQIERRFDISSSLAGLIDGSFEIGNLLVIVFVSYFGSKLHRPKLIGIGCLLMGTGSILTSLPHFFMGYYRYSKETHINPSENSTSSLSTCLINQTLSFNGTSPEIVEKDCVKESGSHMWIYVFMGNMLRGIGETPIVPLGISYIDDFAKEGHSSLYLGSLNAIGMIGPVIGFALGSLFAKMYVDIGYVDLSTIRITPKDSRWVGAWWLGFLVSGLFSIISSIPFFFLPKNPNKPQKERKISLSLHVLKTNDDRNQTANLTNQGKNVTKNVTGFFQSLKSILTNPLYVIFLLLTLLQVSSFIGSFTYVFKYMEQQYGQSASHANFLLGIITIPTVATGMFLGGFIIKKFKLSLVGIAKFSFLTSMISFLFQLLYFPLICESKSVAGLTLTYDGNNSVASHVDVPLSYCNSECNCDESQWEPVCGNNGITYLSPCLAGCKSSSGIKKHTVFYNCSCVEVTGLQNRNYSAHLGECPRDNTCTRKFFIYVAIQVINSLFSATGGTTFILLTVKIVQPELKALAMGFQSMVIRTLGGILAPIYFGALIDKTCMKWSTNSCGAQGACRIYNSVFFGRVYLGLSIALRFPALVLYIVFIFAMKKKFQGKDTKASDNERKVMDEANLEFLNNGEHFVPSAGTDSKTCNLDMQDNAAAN
T2 sequence (Q9Y6L6 whole entry): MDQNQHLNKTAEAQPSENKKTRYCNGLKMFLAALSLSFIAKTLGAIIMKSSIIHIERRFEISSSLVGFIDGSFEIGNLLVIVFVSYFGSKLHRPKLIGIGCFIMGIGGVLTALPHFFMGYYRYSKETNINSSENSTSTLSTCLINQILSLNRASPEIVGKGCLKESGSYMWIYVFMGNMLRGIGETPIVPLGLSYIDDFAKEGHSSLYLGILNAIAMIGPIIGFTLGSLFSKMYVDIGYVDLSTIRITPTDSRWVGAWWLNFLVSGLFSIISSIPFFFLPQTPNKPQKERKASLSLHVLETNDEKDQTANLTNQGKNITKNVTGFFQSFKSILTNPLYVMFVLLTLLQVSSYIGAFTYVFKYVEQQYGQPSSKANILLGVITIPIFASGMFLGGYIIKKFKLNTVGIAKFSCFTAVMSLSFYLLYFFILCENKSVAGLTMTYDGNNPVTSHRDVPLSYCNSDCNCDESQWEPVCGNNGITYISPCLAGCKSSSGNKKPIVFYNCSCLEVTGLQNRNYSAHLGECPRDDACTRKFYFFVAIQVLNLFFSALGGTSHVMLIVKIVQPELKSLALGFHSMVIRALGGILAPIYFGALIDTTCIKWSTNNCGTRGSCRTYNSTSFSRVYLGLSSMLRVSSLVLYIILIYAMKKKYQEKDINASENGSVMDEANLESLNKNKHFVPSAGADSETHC
T1 sequence (P08183 whole entry): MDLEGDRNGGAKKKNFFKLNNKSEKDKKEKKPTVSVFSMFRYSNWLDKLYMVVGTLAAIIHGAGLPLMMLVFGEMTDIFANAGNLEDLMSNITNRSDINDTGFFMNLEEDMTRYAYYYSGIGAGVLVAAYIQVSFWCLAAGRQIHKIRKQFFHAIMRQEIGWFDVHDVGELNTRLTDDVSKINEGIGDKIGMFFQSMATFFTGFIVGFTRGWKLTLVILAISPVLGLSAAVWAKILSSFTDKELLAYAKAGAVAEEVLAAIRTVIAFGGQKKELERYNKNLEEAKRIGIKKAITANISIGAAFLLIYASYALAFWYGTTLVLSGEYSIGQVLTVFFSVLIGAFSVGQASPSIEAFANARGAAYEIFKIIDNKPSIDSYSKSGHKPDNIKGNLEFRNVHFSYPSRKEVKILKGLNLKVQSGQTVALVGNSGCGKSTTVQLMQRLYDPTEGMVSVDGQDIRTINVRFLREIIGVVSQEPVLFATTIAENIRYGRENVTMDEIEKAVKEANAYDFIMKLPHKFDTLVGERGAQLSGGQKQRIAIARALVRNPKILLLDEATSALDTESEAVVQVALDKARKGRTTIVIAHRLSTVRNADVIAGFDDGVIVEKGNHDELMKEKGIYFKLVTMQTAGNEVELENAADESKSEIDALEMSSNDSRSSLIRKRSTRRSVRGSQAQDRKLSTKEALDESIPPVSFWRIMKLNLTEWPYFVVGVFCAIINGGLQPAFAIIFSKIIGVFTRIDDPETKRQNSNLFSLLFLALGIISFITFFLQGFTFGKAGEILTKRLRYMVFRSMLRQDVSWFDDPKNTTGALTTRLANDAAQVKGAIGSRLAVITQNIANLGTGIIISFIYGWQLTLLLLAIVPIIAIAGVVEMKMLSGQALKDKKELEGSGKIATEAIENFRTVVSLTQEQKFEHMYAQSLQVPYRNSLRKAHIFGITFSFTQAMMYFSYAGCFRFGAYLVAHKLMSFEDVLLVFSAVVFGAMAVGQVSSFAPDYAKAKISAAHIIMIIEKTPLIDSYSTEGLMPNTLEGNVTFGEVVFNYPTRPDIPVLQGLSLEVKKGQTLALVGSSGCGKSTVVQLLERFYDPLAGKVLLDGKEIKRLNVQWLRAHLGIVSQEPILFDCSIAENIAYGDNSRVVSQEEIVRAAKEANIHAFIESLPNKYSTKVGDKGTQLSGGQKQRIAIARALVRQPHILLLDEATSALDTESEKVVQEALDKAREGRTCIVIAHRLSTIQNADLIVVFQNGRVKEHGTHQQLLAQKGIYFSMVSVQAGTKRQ

CCN(CCO)CCCC(C)Nc1ccnc2cc(Cl)ccc12 (centres unmarked) [hydroxychloroquine]
toxic effects (LDH release) [1]: no toxic effects
effect on intracellular calcein fluorescence (P-gp inhibition) [2]: did not affect intracellular calcein fluorescence
concentrations at which intracellular calcein fluorescence was increased (weak P-gp inhibition) [3]: higher than 10 µM
OATP1B1 inhibition [4, 27]: did not inhibit
OATP1B3 inhibition [5, 27]: did not inhibit
OATP2B1 inhibition ([6]; 0.1–100 µM, 1 µM DBF uptake, 10 min): did not inhibit
IC50 ([7]; LLC-PK1, LLC-PK1): 82 ± 10 µM
IC50 ([7]; LLC-PK1, LLC-PK1 + LY335979 (P-gp inhibitor)): 93 ± 2 µM
P-gp substrate characteristics [8]: substrate of the efflux transporter P-gp
IC50 [9]: 427 ± 16 µM
IC50 ([9]; with LY335979 (zosuquidar), concentration not given, L-MDR1 + LY335979 (P-gp inhibitor)): 90 ± 1 µM
IC50 [10]: 89 ± 12 µM
IC50 [11]: 88 ± 9 µM
IC50 ([11]; with FTC, concentration not given, MDCKII-BCRP + FTC): 92 ± 5 µM
BCRP substrate characteristics [12]: not transported by BCRP
IC20 [13]: 22.5 ± 7.3 µM
CYP3A4 mRNA expression [14]: no significant effect
ABCB1 mRNA expression [15]: no significant effect
ABCG2 mRNA expression [16]: no significant effect
CYP1A1 mRNA expression [17]: no significant effect
CYP1A2 mRNA expression [18]: no significant effect
blood concentrations at steady-state ([19]; 400 mg/day): up to 9 µM
volume of distribution ([19]; in blood): 5522 L
volume of distribution ([19]; in plasma): 44,257 L
concentration within lysosomes at steady-state (postulated) ([19]; lysosomes): 80000 µM
average intracellular concentration at steady-state (postulated) ([19]; tissue/cells): 1 mM
OATP1B3 inhibition [20]: about 20%
OATP2B1 inhibition [21]: about 20%
inhibition of organic anion transporters (OATs) [22]: weak inhibition
inhibition of organic cation transporters (OCTs) [23]: no inhibition
inhibition of organic cation/carnitine transporters (OCTNs) [24]: no inhibition
OATP1A2 inhibition [25]: competitive inhibitor
effect on digoxin plasma concentrations during concurrent therapy [26]: increased plasma concentrations of digoxin

COc1ccc2[nH]c([S+]([O-])Cc3ncc(C)c(OC)c3C)nc2c1 (centres unmarked) [omeprazole]
ABCG2 mRNA expression [16]: significantly up-regulated
CYP1A1 mRNA expression [17]: significantly up-regulated
CYP1A2 mRNA expression [18]: significantly up-regulated

CO[C@H]1/C=C/O[C@@]2(C)Oc3c(C)c(O)c4c(O)c(c(/C=N/N5CCN(C)CC5)c(O)c4c3C2=O)NC(=O)/C(C)=C\C=C\[C@H](C)[C@H](O)[C@@H](C)[C@@H](O)[C@@H](C)[C@H](OC(C)=O)[C@@H]1C [rifampicin]
inhibition at 10 min, 20 µM ([4]; human, HEK293 cells stably transfected with OATP1B1 (HEK-OATP1B1), probe 8-FcA, 20 µM, positive control): 80%
inhibition at 10 min, 20 µM ([5]; human, HEK293 cells stably transfected with OATP1B3 (HEK-OATP1B3), probe 8-FcA, 20 µM, positive control): 90%
ABCB1 mRNA expression [15]: significantly up-regulated
ABCG2 mRNA expression [16]: slightly

C[C@@H]1O[C@@H](O[C@H]2[C@H](Oc3cc(O)c4c(c3)O[C@H](c3ccc(O)cc3)CC4=O)O[C@H](CO)[C@@H](O)[C@@H]2O)[C@H](O)[C@H](O)[C@H]1O [naringin]
inhibition at 10 min, 1 mM ([6]; human, probe DBF (1 µM), 1 mM, positive control): 70%
